pEC50: −log10 of the molar value. Counter-ions that a name gives are not always drawn. Like-named read-outs stand apart in the source and are kept apart here.

Drawing on patent publication US20250388584A1, “TPK AGONIST AND METHOD FOR TREATING NEURODEGENERATIVE DISEASES USING SAME” (SHANGHAI RAISING PHARMACEUTICAL CO., LTD., priority 2022, published 2025), this text covers Emax and EC50 for 24 molecules.

The assay concerns the target TPK enzyme (Homo sapiens (Human), UniProt Q9H3S4). Briefly: TPK enzyme activity test. The conditions noted are these: for Emax: calculated with the effect of DMSO on TPK enzyme activity as 100%; for pEC50: promoting effect on TPK enzyme activity. The assay is classed as biochemical.

TPK enzyme, sequence (Q9H3S4 whole entry): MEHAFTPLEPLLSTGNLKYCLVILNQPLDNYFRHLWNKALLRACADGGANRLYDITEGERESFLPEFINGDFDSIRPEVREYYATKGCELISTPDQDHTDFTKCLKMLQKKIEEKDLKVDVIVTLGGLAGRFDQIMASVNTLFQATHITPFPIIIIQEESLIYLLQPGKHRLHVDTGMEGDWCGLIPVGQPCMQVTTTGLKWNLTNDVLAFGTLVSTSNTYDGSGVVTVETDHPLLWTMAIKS

As a reminder, the Emax is the size of the effect at its maximum, as opposed to the concentration needed. The term pEC50 denotes the EC50 on a negative log10 scale, so that one unit is a factor of ten. Low readings indicate a high EC50, high ones a low EC50. Molecule `O=C1CCCCN1CCCCCCN1CCSc2ccc(C(F)(F)F)cc21` [Compound 193, 1-(6-(6-(trifluoromethyl)-2,3-dihydro-4H-benzo[b][1,4]thiazin-4-yl)hexyl)piperidin-2-one] showed a pEC50 of 5.13. The Emax (read-out: Emax) was 178%. Turning to `O=C1CCCCN1CCCN1CCSc2ccc(C(F)(F)F)cc21` [Compound 194, 1-(3-(6-(trifluoromethyl)-2,3-dihydro-4H-benzo[b][1,4]thiazin-4-yl)propyl)piperidin-2-one], the Emax (read-out: Emax) is 139%. On the same count and under the same terms, the figure for `O=C1CCCCN1CCCCCCN1C(=O)CSc2ccc(C(F)(F)F)cc21` [Compound 195, 4-(6-(2-oxopiperidin-1-yl)hexyl)-6-(trifluoromethyl)-2H-benzo[b][1,4]thiazin-3(4H)-one] is 136%. In the case of `O=C1c2ccccc2CN1CCCN1CCSc2ccc(C(F)(F)F)cc21` [Compound 197, 2-(3-(6-(trifluoromethyl)-2,3-dihydro-4H-benzo[b][1,4]thiazin-4-yl)propyl)isoindolin-1-one], where the note is “read-out: Emax”, the Emax was 132%.

Regarding `O=C(O)CCC(=O)OCCN1CCN(CCC(=O)N2c3ccccc3Sc3ccc(C(F)(F)F)cc32)CC1` [Compound 199], the pEC50 was 6.31. Besides, the Emax (read-out: Emax) was 204%. Taken in the same sequence, the figures for `O=C(CCN1c2ccccc2Sc2ccccc21)NCCN1CCOCC1` [Compound 200] were 8.53 and 168%. Regarding `O=C1CCc2ccc(OCCCCN3c4ccccc4Sc4ccc(C(F)(F)F)cc43)cc2N1` [Compound 204], the Emax is 186.22% and the pEC50 is 6.97.

As for `O=C1CCc2ccc(OCCCCN3c4ccccc4Sc4ccc(C(F)(F)F)cc43)cc2N1` [Compound 205, 7-(4-(2-(trifluoromethyl)-10H-phenothiazin-10-yl)butoxy)-3,4-dihydroquinolin-2(1H)-one], the Emax was 137.51%.

Molecule `O=C1CCc2ccc(OCCCCCN3c4ccccc4Sc4ccc(C(F)(F)F)cc43)cc2N1` [Compound 206, 7-((5-(2-(trifluoromethyl)-10H-phenothiazin-10-yl)pentyl)oxy)-3,4-dihydroquinolin-2(1H)-one] had a pEC50 of 5.84. For the same molecule, the Emax (read-out: Emax) is 165%. With `O=C1CCc2ccc(OCCCCCCN3c4ccccc4Sc4ccc(C(F)(F)F)cc43)cc2N1` [Compound 207, 7-((6-(2-(trifluoromethyl)-10H-phenothiazin-10-yl)hexyl)oxy)-3,4-dihydroquinolin-2(1H)-one], the Emax (read-out: Emax) is 129%. Regarding `COc1ccc2[nH]c(=O)c3c(ccn3CCCN3CCN(c4cccc(C(F)(F)F)c4)CC3)c2c1` [Compound 210, 8-methoxy-3-(3-(4-(3-(trifluoromethyl)phenyl)piperazin-1-yl)propyl)-3,5-dihydro-4H-pyrrolo[2,3-c]quinolin-4-one], the pEC50 was 5.74. In addition, the maximum response (Emax) (read-out: Emax) is 166%. In the same order, the values of `Cc1ccc2c(c1)-c1nc(=O)n(CCCN3CCN(c4cccc(Cl)c4Cl)CC3)cc1CO2` [Compound 213, 3-(3-(4-(2,3-dichlorophenyl)piperazin-1-yl)propyl)-9-methyl-3,5-dihydro-2H-chromeno[4,3-d]pyrimidin-2-one] are 6.26 and 174%. For the molecule `Cc1ccc2c(c1)-c1nc(=O)n(CCC(=O)N3CCN(c4cccc(Cl)c4Cl)CC3)cc1CO2` [Compound 214], the maximal effect (Emax) is 137.60% and the pEC50 was 5.62. Molecule `Cc1ccc2c(c1)-c1ncn(CCC(=O)N3CCN(c4cccc(C(F)(F)F)c4)CC3)c(=O)c1CC2` [Compound 215, 9-methyl-3-(3-oxo-3-(4-(3-(trifluoromethyl)phenyl)piperazin-1-yl)propyl)-5,6-dihydrobenzo[h]quinazolin-4(3H)-one] gave a pEC50 of 5.95. Besides, the Emax (read-out: Emax) was 173%. `Cc1ccc2ncc3c(=O)n(CCCC(=O)N4CCN(c5cccc(Cl)c5Cl)CC4)cnc3c2c1` [Compound 217, 3-(4-(4-(2,3-dichlorophenyl)piperazin-1-yl)-4-oxobutyl)-9-methylpyrimido[5,4-c]quinolin-4(3H)-one]: the pEC50 is 5.83. Moreover, the maximal effect (Emax) (read-out: Emax) was 153%.

On to `Cc1ccc2ncc3c(=O)n(CCCC(=O)N4CCC(Cc5ccc(F)cc5)CC4)cnc3c2c1` [Compound 218, 3-(4-(4-(4-fluorobenzyl)piperidin-1-yl)-4-oxobutyl)-9-methylpyrimido[5,4-c]quinolin-4(3H)-one], for which the pEC50 was 6.21. `Cc1ccc2c(c1)-c1nc(=O)n(CCCC(=O)N3CCC(Cc4ccc(F)cc4)CC3)cc1CO2` [Compound 220, 3-(4-(4-(4-fluorobenzyl)piperidin-1-yl)-4-oxobutyl)-9-methyl-3,5-dihydro-2H-chromeno[4,3-d]pyrimidin-2-one] had a pEC50 of 5.41. Moreover, under “read-out: Emax”, the Emax was 157%. In the same order, the values of `O=C(CCn1cnc2c(c1=O)CCCc1ccccc1-2)N1CCN(c2cccc(C(F)(F)F)c2)CC1` [Compound 221, 3-(3-oxo-3-(4-(3-(trifluoromethyl)phenyl)piperazin-1-yl)propyl)-3,5,6,7-tetrahydro-4H-benzo[6,7]cyclohepta[1,2-d]pyrimidin-4-one] are 5.78 and 154%. With `Cc1ccc2c(c1)-c1ncn(CCCC(=O)N3CCCC(Cc4ccc(F)cc4)C3)c(=O)c1CC2` (centres unmarked) [Compound 223, 3-(4-(3-(4-fluorobenzyl)piperidin-1-yl)-4-oxobutyl)-9-methyl-5,6-dihydrobenzo[h]quinazolin-4(3H)-one], the Emax is on record as 152.22% and the pEC50 was 5.88. Regarding `Cc1ccc2c(c1)-c1ncn(CCC(=O)N3CCC(Cc4ccc(F)cc4)CC3)c(=O)c1CC2` [Compound 225, 3-(3-(4-(4-fluorobenzyl)piperidin-1-yl)-3-oxopropyl)-9-methyl-5,6-dihydrobenzo[h]quinazolin-4(3H)-one], the pEC50 is 6.03. In turn, `O=C(CCCn1cnc2c(c1=O)CCCc1ccccc1-2)N1CCN(c2cccc(C(F)(F)F)c2)CC1` [Compound 228, 3-(4-oxo-4-(4-(3-(trifluoromethyl)phenyl)piperazin-1-yl)butyl)-3,5,6,7-tetrahydro-4H-benzo[6,7]cyclohepta[1,2-d]pyrimidin-4-one] showed a pEC50 of 5.67. For the same molecule, under “read-out: Emax”, the Emax was 148%.

Regarding `COc1ccc2[nH]c(=O)c3c(ncn3CCCC(=O)N3CCN(c4cccc(Cl)c4Cl)CC3)c2c1` [Compound 231, 3-(4-(4-(2,3-dichlorophenyl)piperazin-1-yl)-4-oxobutyl)-8-methoxy-3,5-dihydro-4H-imidazo[4,5-c]quinolin-4-one], the pEC50 was 5.65. Further, the Emax (read-out: Emax) was 137%. In turn, `COc1ccc2[nH]c(=O)c3c(c2c1)CN(CCCN1CCN(c2cccc(Cl)c2Cl)CC1)C3` [Compound 235, 2-(3-(4-(2,3-dichlorophenyl)piperazin-1-yl)propyl)-8-methoxy-1,2,3,5-tetrahydro-4H-pyrrolo[3,4-c]quinolin-4-one] showed a negative-log EC50 (pEC50) of 6.24. Further, the Emax (read-out: Emax) was 137%. In the same order, the values of `Cc1ccc2[nH]c3c(=O)n(CCCN4CCN(c5cccc(Cl)c5Cl)CC4)cnc3c2c1` [Diformate salt of 52, 3-(3-(4-(2,3-dichlorophenyl)piperazin-1-yl)propyl)-8-methyl-3,5-dihydro-4H-pyrimido[5,4-b]indol-4-one] are 5.89 and 195%.
